In PMC9131456, “Structure-Based Discovery of Lipoteichoic Acid Synthase Inhibitors” (Journal of Chemical Information and Modeling, 2022):

How the values were obtained:
[1] = test system: LTA production in S. aureus (strain RN4220); test: Western blot (immunoblotting) of LTA in S. aureus cell extracts; assay type: cell-based; conditions: for LTA production: Western blot of S. aureus cell extracts, 10 μM in Figure S14, 100 μM for compound 8
Experimental: The procedures of LTA detection using Western Blot had previously been reported by Gründling et al.[52] To determine the effect of the compounds on LTA production, 10 mL cultures of S. aureus (strain RN4220) in MH2 broth were incubated in an orbital shaker at 37 °C with either the compounds or DMSO. When the control cultures had reached an OD600nm ∼ 1, the bacteria were pelleted and the OD600nm of the cultures normalized by resuspension with the appropriate amount of MH2 broth. Subsequently, 1 mL from each cultures was mixed with 0.5 mL of 0.1 mm glass beads, and the bacteria were lyzed by vortexing at 4 °C for 45 min. After lysis, glass beads were removed by centrifugation at 200g, and the supernatants were transferred to a new tube. The membrane-associated LTA from each culture were pelleted by an additional centrifugation step of the supernatant at 16,000g for 15 min before resuspension in 30 μL of 2× SDS. The samples were boiled at 80 °C for 20 min, and the solubilized fractions were loaded onto 15% SDS-polyacrylamide gels prior to electrophoresis at 120 V for 1.5 h. The LTA on the gels were electrotransferred onto FL-immobilon PVDF membranes at 25 V for another 1.5 h. After the electrotransfer, the membranes were blocked with 5% skimmed milk for 1 h and incubated with the antimouse LTA antibody (clone G43J, Thermo Fisher Scientific; 1:1000 dilution) overnight at 4 °C. After washing, the membranes were incubated with antimouse IRDye 680RD (1:10,000 dilution) for 1 h, washed, and visualized using the Odyssey CLx Imaging System.

[2] = test system: S. aureus (strain Newman); test: Antimicrobial microdilution broth assay (growth inhibition); assay type: cell-based; conditions: S. aureus strain Newman growth, OD600nm after 20 h at 37 °C, MH2 broth, mean ± s.e.m., n = 3
Experimental: All the compounds tested in this study were dissolved in dimethyl sulfoxide (DMSO) at an initial stock concentration of 20 mM and stored at −20 °C. These compounds were tested for their antimicrobial activity using the microdilution broth method[66] following the protocol described by Richter et al.[30] Briefly, overnight cultures of S. aureus (strain Newman) grown at 37 °C in cation-adjusted Mueller Hinton II (MH2) broth were adjusted to an OD600nm of 0.6 before back-diluted with a factor of 1:2000 with the same broth. After that, 200 μL of the diluted bacterial culture were dispensed into each well of 96-well plates supplemented with the compounds to the desired concentrations. The plates were then sealed with a moisture membrane barrier and incubated statically for 20 h at 37 °C. After that, the OD600nm values of the cultures in each well were measured using a CLARIOstar microplate reader (BMG Labtech). The procedures for the potentiation assays were by large the same as described above with some variations. In such assays, MRSA strain COL was grown in the 96-well plates supplemented with different concentrations of compound 9 with methicillin, carbenicillin, or polymyxin B in a checkerboard format. Their synergistic effects were quantified by OD600nm measurements using a CLARIOstar microplate reader (BMG Labtech).

[3] = test system: IsaA; test: SDS-PAGE and LC/MS-MS analysis of the lysate of treated S. aureus; assay type: cell-based; conditions: S. aureus treated with 100 μM compound, SDS-PAGE
[4] = test system: HEK293 cells; test: LDH release cytotoxicity assay; assay type: cell-based, human; conditions: 200 μM compound, 24 h
Experimental: The human embryonic kidney (HEK293) cells were maintained in Dulbecco’s modified Eagle medium (DMEM) supplemented with 10% fetal bovine serum and 100 units/mL of penicillin–streptomycin. For the cell viability assays, cells were seeded onto 96-well plates at a density of 4 × 10^4 cells/well and grown at 37 °C at 5% CO2. After incubating the cells for 24 h, the culture media were replaced with fresh DMEM supplemented with 200 μM of the compounds 1771, compound 4, compound 8, and compound 9 and incubated further for an additional 24 h. The cytotoxicity of these drugs was measured using the LDH Cytotoxicity Assay Kit according to the manufacturer’s instruction (Thermo Scientific). The absorbance at 490 nm was measured with a CLARIOstar microplate reader (BMG Labtech), and the reference wavelength was set at 630 nm.

[5] = target: T1, Arg356Ala eLtaS (Staphylococcus aureus, UniProt Q2G093, R356A); test: Isothermal titration calorimetry, Arg356Ala eLtaS; assay type: binding, S. aureus; conditions: ITC, compared with wild-type eLtaS
T1 construct: LtaS is a transmembrane protein with a large extracellular catalytic domain (denoted as eLtaS); His-tag; made in house; host or cells: E. coli Rosetta 2 (DE3), pET19m
Excerpt: (§1) The plasmid [Rosetta pProEX-eLtaS] from E coli strain ANG571 was extracted using the QIAprep Spin Miniprep Kit. Meanwhile, the genes encoding the mutant LtaS with mutations His416Ala, His347Ala, and Arg356Ala were extracted from the strains ANG1115, ANG1175, and ANG1178, respectively, using the QIAamp DNA Mini Kit. These genes were amplified using PCR, cut with NdeI/BamHI, and ligated into a pET19m transformed into E. coli Rosetta 2 (DE3) strain.
(§2) Each of the eLtaS proteins were purified from 6 L of E. coli cultures that were grown with aeration in LB medium supplemented with 200 μg/mL of carbenicillin and 34 μg/mL of chloramphenicol at 37 °C. When the cultures reached an OD600nm of about 0.6, protein expression was induced with 1 mM IPTG final concentration at 21 °C overnight. […] All four eLtaS proteins were subjected to circular dichroism analysis, and their exact masses were determined using MS.
(§3) The thawed eLtaS proteins were dialyzed using D-Tube Dialyzer Mini (EMD Millipore) in 20 mM Trizma-HCl pH 7.5, 100 mM NaCl with Chelex 100 (Sigma-Aldrich) for 1.5 h twice on the same day prior to the ITC experiments. […] Data were first analyzed in NITPIC[69] for baseline calculations and then fit for thermodynamic parameters using the OneSite model in Origin 7.0 software.

[6] = parameters: method as in PMID 23401520; conditions: lethal sepsis mouse model; cited from earlier work
[7] = test system: LTA synthase (LtaS); parameters: method as in PMID 23401520; conditions: by inhibiting LtaS; cited from earlier work
[8] = test system: S. aureus (strain Newman); test: Non-lethal S. aureus lung infection mouse model; assay type: in vivo, BALB/c female mice; conditions: 300 μg intranasally, infected BALB/c mice
Excerpt: All in vivo experiments were done at the University of Liverpool under the UK Animals (Scientific Procedures) Act 1986 guidelines. The protocols were approved by the UK Home Office and by the University of Liverpool Animal Welfare and Ethics Committee. Six to eight week old BALB/c female mice (Charles River, UK) were used in the study after being left to acclimatize for a minimum of 7 days prior to experimentation. Mice were intranasally infected with 5 × 10^7 CFU of the S. aureus (strain Newman) in 50 μL of sterile phosphate-buffered saline (PBS). The bacterial dose was prepared by incubating 50 μL of an overnight culture in brain heart infusion (BHI) broth (Oxoid, Thermo Fisher Scientific, UK) into 5 mL of fresh BHI. Once the culture reached an OD600 = 2–3, the bacterial numbers were adjusted to the desired dose using sterile PBS. Three hours postinfection, mice were intranasally treated with either 50 μL of sterile PBS (control) or with 300 μg of compounds 1771 and compound 4 dissolved in 50 μL of sterile PBS. The final DMSO concentration was 5%, and the PBS control also contained 5% DMSO. Mice were culled 24 h postinfection; lungs were collected, homogenized, and serially diluted to determine CFU counts.[70] Significant differences were determined using the unpaired two-tailed Student t-test (p = 0.0013).

[9] = target: T2, His416Ala eLtaS (Staphylococcus aureus, UniProt Q2G093, H416A); test: Isothermal titration calorimetry, His416Ala eLtaS; assay type: binding, S. aureus; conditions: ITC, compared with wild-type eLtaS
T2 construct: LtaS is a transmembrane protein with a large extracellular catalytic domain (denoted as eLtaS); His-tag; made in house; host or cells: E. coli Rosetta 2 (DE3), pET19m
Excerpt: as §1, §2, §3

[10] = target: T3, His347Ala eLtaS (Staphylococcus aureus, UniProt Q2G093, H347A); test: Isothermal titration calorimetry, His347Ala eLtaS; assay type: binding, S. aureus; conditions: ITC, compared with wild-type eLtaS
T3 construct: LtaS is a transmembrane protein with a large extracellular catalytic domain (denoted as eLtaS); His-tag; made in house; host or cells: E. coli Rosetta 2 (DE3), pET19m
Excerpt: as §1, §2, §3

[11] = target: T4, wild-type eLtaS (Staphylococcus aureus, UniProt Q2G093); test: Isothermal titration calorimetry, wild-type eLtaS; assay type: binding, S. aureus; conditions: ITC, 25 °C, wild-type eLtaS titrated into 10 μM inhibitor
T4 construct: LtaS is a transmembrane protein with a large extracellular catalytic domain (denoted as eLtaS); His-tag; made in house; host or cells: E. coli (Rosetta; plasmid pProEX-eLtaS from strain ANG571)
Experimental: Each of the eLtaS proteins were purified from 6 L of E. coli cultures that were grown with aeration in LB medium supplemented with 200 μg/mL of carbenicillin and 34 μg/mL of chloramphenicol at 37 °C. When the cultures reached an OD600nm of about 0.6, protein expression was induced with 1 mM IPTG final concentration at 21 °C overnight. Later, the bacteria were harvested by centrifugation at 11,899g, and the bacterial pellets were resuspended with lysis buffer (50 mM Trizma-HCl, pH 7.5, 300 mM NaCl, 5% glycerol, 10 mM imidazole, 5 mM β-mercaptoethanol). The bacterial pellets were lyzed by three passages through a high-pressure emulsifier, and the lysates were centrifuged at 47,596g for 30 min at 4 °C. The resulting supernatants containing the His-tagged eLtaS proteins were filtered with a 0.22 μm filter before being loaded onto a 5 mL Ni-NTA column using an ÄKTApure protein purification system. The bound proteins were subsequently washed with lysis buffer, eluted using the elution buffer (50 mM Trizma-HCl, pH 7.5, 300 mM NaCl, 5% glycerol, and 300 mM imidazole), and dialyzed twice using the dialysis buffer [25 mM Trizma-HCl, pH 7.5, 100 mM NaCl, 10% glycerol, 1 mM ethylenediaminetetraacetic acid (EDTA)]. After dialysis, protein purity was confirmed to be >90% using SDS-PAGE. Proteins were then concentrated, snap-frozen in liquid N2, and stored at −80 °C prior to usage. All four eLtaS proteins were subjected to circular dichroism analysis, and their exact masses were determined using MS.
The thawed eLtaS proteins were dialyzed using D-Tube Dialyzer Mini (EMD Millipore) in 20 mM Trizma-HCl pH 7.5, 100 mM NaCl with Chelex 100 (Sigma-Aldrich) for 1.5 h twice on the same day prior to the ITC experiments. After dialysis, the eLtaS proteins were centrifuged at 20,000g at 10 °C for 10 min. The supernatants were transferred to new microcentrifuge tubes and diluted to 100 μM using the same buffer as above with an addition of 0.1% (v/v) DMSO. Meanwhile, the eLtaS inhibitors were diluted to 10 μM using the same buffer and maintaining 0.1% (v/v) DMSO. The eLtaS proteins were titrated into the main cell containing the inhibitors using a VP-ITC at 25 °C. The injection parameters were set as follows: a reference power of 15 μcal/s, an initial injection of 3 μL over a duration of 3.6 s, and then subsequent injections of 10 μL over a duration of 12 s. All injections were spaced with 240 s with a filter period of 2 s. Data were first analyzed in NITPIC[69] for baseline calculations and then fit for thermodynamic parameters using the OneSite model in Origin 7.0 software.

[12] = Staphylococcus aureus, NEWMAN, 20 h

With `Cc1csc(SCc2ccccc2C(=O)OCC(=O)Nc2nnc(-c3ccccc3)o2)n1` [Compound 3] the LTA production [1] was “able to reduce LTA production” and the IC50 [2] was 13.4 ± 0.35 µM.

With `Cc1cccc(COc2ccccc2C(=O)OCC(=O)Nc2nnc(-c3ccccc3)o2)c1` [Compound 6] the LTA production [1] was “able to reduce LTA production” and the IC50 [2] was 11.1 ± 0.49 µM.

`O=C(COC(=O)/C=C/c1ccc2ccccc2n1)Nc1nnc(-c2ccccc2)o1` [Compound 7] gave an IC50 [2] of 12.4 ± 1.9 µM.

In the case of `O=C(COC(=O)CSC(c1ccccc1)c1ccccc1)Nc1nnc(-c2ccccc2)o1` [Compound 5], the IC50 [2] is reported as 17.5 ± 1.08 µM.

In the case of `COc1ccccc1Nc1ncccc1C(=O)OCC(=O)Nc1nnc(-c2ccccc2)o1` [Compound 2], the IC50 [2] is reported as 12.3 ± 0.38 µM.

For `O=C(Nc1ccc(Oc2ccc(NC(=O)Nc3ccc([N+](=O)[O-])cc3)cc2)cc1)Nc1ccc([N+](=O)[O-])cc1` [Compound 8], the “protein upregulation in the lysate (IsaA, a peptidoglycan hydrolase)” value [3] was “upregulated a 24 kDa protein”, the LTA production [1] was “did not decrease LTA production” and the “electrophoretic mobility of the LTA extracted from treated S. aureus” value ([1]; Western blot, 100 μM compound) was “decreased electrophoretic mobility and higher heterogeneity”. For the same compound, the “cytotoxicity (LDH release)” value [4] was “cytotoxic”, the IC50 [2] was 29.4 µM and the IC50 [2, 12] was 29.4 µM.

In the case of `O=C(COC(=O)Cc1coc2ccc3ccccc3c12)Nc1nnc(-c2ccccc2)o1` [compound 1771], the “binding affinity to the Arg356Ala eLtaS variant” value [5] is given as “slight increase in binding affinities”, the in vivo stability [6] is given as “lost activity over time due to in vivo instability” and the “survival of infected mice” value [6] is given as “temporarily prolong the survival of the infected mice”. The LTA synthesis [7] was “able to suppress LTA synthesis”, the tolerability in mice [8] was “did not tolerate the latter well” and the “binding affinity to the His416Ala eLtaS variant” value [9] was “slight increase in binding affinities”. For the same compound, the IC50 [2] was 14.9 ± 1.59 µM, the IC50 [2, 12] was 14.5 µM and the “binding to the His347Ala eLtaS variant” value [10] was “abolished”. The Kd [11] was 457 ± 7.1 nM.
